Results taken from ChEMBL document CHEMBL1124729, “Plant antitumor agents. 29. Synthesis and biological activity of ring D and ring E modified analogues of camptothecin” (1990).
≈ marks a conversion by molar mass, not a printed value. Calls of active or inactive are those of the source. The calls are words filed in the database; no cut-off is given here.

What was measured:
Mus musculus [1] = organism: Mus musculus; assay: (§1) The cytotoxic activity was in vitro tested by 9PS assay method; type: functional; details: read-out: ED50 (the source's name)
KB cells (Homo sapiens) = assay: The cytotoxic activity in vitro by 9KB assay method; details: read-out: ED50 (the source's name)
L1210 (Mus musculus) [2] = assay: The compound was tested in vivo for life prolongation against mouse L1210 tumor cells at 80 mg/kg concentration; No toxicity
Nucleic Acid [3] = assay: The compound was tested for inhibitory activity against DNA relaxation by DNA topoisomerase I at dose 10-30 uM; Inactive; type: functional
L1210 [4] = assay: The compound was tested in vivo for life prolongation against mouse L1210 tumor cells at 80 mg/kg concentration; Inactive; type: functional, organism-based; set-up: dose 80 mg/kg
Nucleic Acid [5] = assay: The compound was tested for inhibitory activity against DNA relaxation by DNA topoisomerase I at dose 30 uM; type: functional
L1210 [6] = assay: The compound was tested in vivo for life prolongation against mouse L1210 tumor cells at 30 mg/kg concentration; Inactive; type: functional, organism-based; set-up: dose 30 mg/kg
L1210 (Mus musculus) [7] = assay: The compound was tested in vivo for life prolongation against mouse L1210 tumor cells at 30 mg/kg concentration; Nontoxic
Nucleic Acid [8] = assay: The compound was tested for inhibitory activity against DNA relaxation by DNA topoisomerase I at dose 10 uM; type: functional
L1210 [9] = assay: The compound was tested in vivo for life prolongation against mouse L1210 tumor cells at 4 mg/kg concentration; type: functional
P388 [10] = assay: The compound was tested in vivo for life prolongation against mouse P388 tumor cells at 4 mg/kg concentration; type: functional
L1210 [11] = assay: The compound was tested in vivo for life prolongation against mouse L1210 tumor cells at 40 mg/kg concentration; Inactive; type: functional, organism-based; set-up: dose 40 mg/kg
P388 [12] = assay: The compound was tested in vivo for life prolongation against mouse P388 tumor cells at 40 mg/kg concentration; No toxicity; type: functional, organism-based; set-up: dose 40 mg/kg
Nucleic Acid [13] = assay: The compound was tested for inhibitory activity against DNA relaxation by DNA topoisomerase I at dose 100 uM; type: functional
[14] = as §1; type: functional; details: Mus musculus; read-out: ED50 (the source's name)
P388 [15] = assay: The compound was tested in vivo for life prolongation against mouse P388 tumor cells at 8 mg/kg concentration; type: functional
[16] = The cytotoxic activity was in vitro tested by 9PS assay method.; type: functional; details: Mus musculus; read-out: ED50 (the source's name)
Mus musculus [17] = organism: Mus musculus; assay: The cytotoxic activity in vitro by 9KB assay method.; type: functional; details: read-out: ED50 (the source's name)

Structure (SMILES)	EC50 (Mus musculus [1])	EC50 (KB cells (Homo sapiens))	inhibition (Nucleic Acid [3])	inhibition (Nucleic Acid [5])	further results
CC[C@@]1(O)C(=O)NCc2c1cc1n(c2=O)Cc2cc3ccccc3nc2-1	3 µg/mL (≈ 8.64 µM)	> 10 µg/mL	inactive		T/C x100 (L1210 (Mus musculus) [2]): No toxicity; T/C x100 (L1210 [4]): inactive
CCC1(O)C(=O)OCc2c1ccc1c2-c2nc3ccccc3cc2C1 (centres undefined)	> 10 µg/mL	> 10 µg/mL		0%	
CCC1(N=[N+]=[N-])C(=O)OCc2c1cc1n(c2=O)Cc2cc3ccccc3nc2-1 (centres undefined)	> 10 µg/mL	> 10 µg/mL	inactive		T/C x100 (L1210 [6]): inactive; T/C x100 (L1210 (Mus musculus) [7]): Non-toxic
CC[C@@]1(O)C(=O)OCc2c1cc1n(c2=O)Cc2cc3ccccc3nc2-1 [CAMPTOTHECIN]	0.08 µg/mL (≈ 0.23 µM)	0.02 µg/mL (≈ 0.0574 µM)		85%	inhibition (Nucleic Acid [8]): 76%; T/C x100 (L1210 [9]): 200%; T/C x100 (P388 [10]): 199%
CCC1(N)C(=O)OCc2c1cc1n(c2=O)Cc2cc3ccccc3nc2-1.Cl (centres undefined)	3.4 µg/mL	1.6 µg/mL	inactive		T/C x100 (L1210 [11]): inactive; T/C x100 (P388 [12]): No toxicity
CCC1(O)C(=O)OCc2c1cc1n(c2=O)Cc2cc3ccccc3nc2-1 (centres undefined)		0.03 µg/mL (≈ 0.0861 µM)		48%	inhibition (Nucleic Acid [8]): 39%; inhibition (Nucleic Acid [13]): 70%; EC50 [14]: 0.04 µg/mL (≈ 0.115 µM); T/C x100 (P388 [15]): 220%
CCC1(O)C(=O)OCc2cc3c(cc21)-c1nc2ccccc2cc1C3 (centres undefined)				6%	inhibition (Nucleic Acid [13]): 38%; EC50 [16]: 2.5 µg/mL (≈ 7.54 µM); EC50 (Mus musculus [17]): 1.3 µg/mL (≈ 3.92 µM)
